Measurements: US20050209157A1, “Short bioactive peptides and methods for their use” (priority 2001, published 2005)
Several values for one entry are separate records, joined by “and”; a condition that tells them apart may be missing. Equal entries are not always repeated. Where two headings read alike, the source gives them in different places. No end group written: not given here.

Legend:
[1] = system: Pseudomonas aeruginosa ATCC 9027; test: Antimicrobial assay I, MIC by OD measurement; format: cell-based; conditions: 37° C. for 24 hours, absorbance 620 nm
[2] = system: Staphylococcus aureus ATCC 6538; test: Antimicrobial assay I, MIC by OD measurement; format: cell-based; conditions: 37° C. for 24 hours, absorbance 620 nm
[3] = system: yeast (Saccharomyces cerevisiae); test: Antimicrobial assay I, yeast assay in RPMI 1640; format: cell-based; conditions: RPMI 1640 media
S. aureus (MRSA) = format: cell-based, Staphylococcus aureus; conditions: mean of three; 16 to 20 hours at 35° C.
S. epidermidis C621 = format: cell-based, Staphylococcus epidermidis; conditions: mean of three; 16 to 20 hours at 35° C.
S. pyogenes M76 = test: Antimicrobial assays II, NCCLS broth microdilution MIC; format: cell-based, Streptococcus pyogenes; conditions: mean of three; 16 to 20 hours at 35° C.
S. pyogenes ATCC19615 = test: as above; format: cell-based, Streptococcus pyogenes; conditions: mean of three, in µg/mL
S. pneumoniae C718 = test: as above; format: cell-based, Streptococcus pneumoniae; conditions: mean of three
S. pneumoniae C719 = test: as above; format: cell-based, Streptococcus pneumoniae; conditions: mean of three, in µg/mL
P. acne ATCC 6919 = test: as above; format: cell-based, Propionibacterium acnes; conditions: mean of three, in µg/mL
P. aeruginosa H374 = format: cell-based, Pseudomonas aeruginosa; parameters: key to FIC Index: FIC = 0.25 + MIC antibiotic in combination / MIC alone; ≤0.5 = synergy; conditions: for MIC Cm-comb.: MIC of chloramphenicol with peptide at ¼ MIC; for MIC Nal-comb.: MIC of nalidixic acid with peptide at ¼ MIC; for FIC Index: 0.5 or less = synergy
Outline: (§1)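 Synergy against efflux-mutant strains: two-fold dilutions of nalidixic acid or chloramphenicol tested with peptide held at ¼ of its MIC.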

P. aeruginosa H774 = format: cell-based, Pseudomonas aeruginosa; parameters: key to FIC Index: FIC = 0.25 + MIC antibiotic in combination / MIC alone; ≤0.5 = synergy; conditions: P. aeruginosa H744; nalidixic acid + peptide at ¼ MIC; 0.5 or less = synergy
Outline: as §1

P. aeruginosa = format: cell-based, Pseudomonas aeruginosa; parameters: key to FIC Index: FIC = 0.25 + MIC antibiotic in combination / MIC alone; ≤0.5 = synergy; conditions: P. aeruginosa H744; MIC of nalidixic acid with peptide at ¼ MIC
Outline: as §1

BMKC = test: Anti-cancer assay, MTT, LD50; format: cell-based; conditions: BMKC cloned melanoma line, 24 hours with peptide
Excerpt: (§2) Numbers are LD50 values (μg/mL).

MCF7 = test: Anti-cancer assay, MTT, LD50; format: cell-based; conditions: MCF7 breast adenocarcinoma line, MTT, 24 hours with peptide
Excerpt: as §2

SW480 = test: Anti-cancer assay, MTT, LD50; format: cell-based; conditions: SW480 colon adenocarcinoma line, 24 hours with peptide
Excerpt: as §2

in vitro [4] = format: cell-based, human; conditions: human, human red blood cells, pH 7, hemolytic assay, concentration at 50% hemolysis, 1 hour at 37° C.; read-out: LD50
in vitro [5] = conditions: human, WI38 normal lung fibroblast cells, LD50 WI38, WI38 normal lung fibroblast line, MTT, 24 hours with peptide
H1299 = test: Anti-cancer assay, MTT, LD50; format: cell-based; conditions: 24 hours with peptide, lung large cell carcinoma
Excerpt: as §2

PC3 = test: Anti-cancer assay, MTT, LD50; format: cell-based; conditions: 24 hours with peptide, prostate adenocarcinoma
Excerpt: as §2

HeLaS3 = test: Anti-cancer assay, MTT, LD50; format: cell-based; conditions: 24 hours with peptide, cervical carcinoma
Excerpt: as §2

[6] = chloramphenicol + peptide at ¼ MIC
[7] = nalidixic acid + peptide at ¼ MIC, FIC=0.25+MIC comb/MIC alone

FAKLLALALKKAL-NH2 [P97, FAKLLALALKKAL-NH2]
paerug9027 (MIC) [1]: 50 µg/mL
staph6538 (MIC) [2]: 5 µg/mL
yeast (MIC or MFC) [3]: 50 µg/mL
S. aureus (MRSA) MIC (S. aureus (MRSA)): 8 µg/mL
S. epidermidis C621 MIC (S. epidermidis C621): 4 µg/mL
S. pyogenes M76 MIC (S. pyogenes M76): 4 µg/mL
S. pyogenes MIC (S. pyogenes ATCC19615): 4 and 8
S. pneumoniae MIC (S. pneumoniae C718): 32 µg/mL
S. pneumoniae MIC (S. pneumoniae C719): 16 and 32
P. acne MIC (P. acne ATCC 6919): 8 and 16
MIC Cm-comb. (P. aeruginosa H374): 16 µg/mL
MIC Nal-comb. (P. aeruginosa H374): 5000 µg/mL
FIC Index (P. aeruginosa H374; [6]): 1.25
FIC Index (P. aeruginosa H374; [7]): 1.25
FIC Index (P. aeruginosa H774): 0.375
MIC Nal-comb. (P. aeruginosa): 78 µg/mL

FALLKALLKKAL-NH2 [P177, FALLKALLKKAL-NH2]
S. aureus (MRSA) MIC (S. aureus (MRSA)): 8 µg/mL
S. epidermidis C621 MIC (S. epidermidis C621): 4 µg/mL
S. pyogenes M76 MIC (S. pyogenes M76): 8 µg/mL
S. pyogenes MIC (S. pyogenes ATCC19615): 4
S. pneumoniae MIC (S. pneumoniae C718): 32 µg/mL
S. pneumoniae MIC (S. pneumoniae C719): 16
P. acne MIC (P. acne ATCC 6919): 8
LD50 BMKC (BMKC): 310 µg/mL
LD50 MCF7 (MCF7): 190 µg/mL
LD50 SW480 (SW480): 310 µg/mL
HC50 at 1 h (in vitro [4]): 400 µg/mL
MIC Cm-comb. (P. aeruginosa H374): 8 µg/mL
MIC Nal-comb. (P. aeruginosa H374): 5000 µg/mL
FIC Index (P. aeruginosa H374; [6]): 0.75
FIC Index (P. aeruginosa H374; [7]): 1.25
FIC Index (P. aeruginosa H774): 0.75
MIC Nal-comb. (P. aeruginosa): 312 µg/mL
CC50 at 24 h (in vitro [5]): 270 µg/mL

GIGKFLKKAKKFGKAFVKILKK-NH2 [P42, reference compound]
paerug9027 (MIC) [1]: > (> indicates greater than 200 μg/mL)
staph6538 (MIC) [2]: 10 µg/mL
yeast (MIC or MFC) [3]: 200 µg/mL
S. aureus (MRSA) MIC (S. aureus (MRSA)): 16 µg/mL
S. epidermidis C621 MIC (S. epidermidis C621): 2 µg/mL
S. pyogenes M76 MIC (S. pyogenes M76): 4 µg/mL
S. pyogenes MIC (S. pyogenes ATCC19615): 4
S. pneumoniae MIC (S. pneumoniae C718): 32 µg/mL
S. pneumoniae MIC (S. pneumoniae C719): 8
P. acne MIC (P. acne ATCC 6919): 2
LD50 BMKC (BMKC): 140 µg/mL
H1299 LD50 (H1299): 150 µg/mL
LD50 MCF7 (MCF7): 31 µg/mL
PC3 LD50 (PC3): 66 µg/mL
LD50 SW480 (SW480): 34 µg/mL
MIC Cm-comb. (P. aeruginosa H374): 16 µg/mL
MIC Nal-comb. (P. aeruginosa H374): 5000 µg/mL
FIC Index (P. aeruginosa H374; [6]): 1.25
FIC Index (P. aeruginosa H374; [7]): 1.25
FIC Index (P. aeruginosa H774): 1.25
MIC Nal-comb. (P. aeruginosa): 624 µg/mL

VAKKLAKLAKKLAKLAL-NH2 [P50]
paerug9027 (MIC) [1]: 15 µg/mL
staph6538 (MIC) [2]: 5 µg/mL
yeast (MIC or MFC) [3]: 50 µg/mL
S. aureus (MRSA) MIC (S. aureus (MRSA)): 4 µg/mL
S. epidermidis C621 MIC (S. epidermidis C621): 4 µg/mL
S. pyogenes M76 MIC (S. pyogenes M76): 8 µg/mL
S. pyogenes MIC (S. pyogenes ATCC19615): 4
S. pneumoniae MIC (S. pneumoniae C718): 32 µg/mL
S. pneumoniae MIC (S. pneumoniae C719): 16
P. acne MIC (P. acne ATCC 6919): 4
LD50 BMKC (BMKC): 40 µg/mL
H1299 LD50 (H1299): 7 µg/mL
HeLaS3 LD50 (HeLaS3): 33 µg/mL
LD50 MCF7 (MCF7): 32 µg/mL
PC3 LD50 (PC3): 54 µg/mL
LD50 SW480 (SW480): 46 µg/mL
MIC Cm-comb. (P. aeruginosa H374): 16 µg/mL
MIC Nal-comb. (P. aeruginosa H374): 5000 µg/mL
FIC Index (P. aeruginosa H374; [6]): 1.25
FIC Index (P. aeruginosa H374; [7]): 1.25
FIC Index (P. aeruginosa H774): 1.25
MIC Nal-comb. (P. aeruginosa): 624 µg/mL

VALALKALKKLLKKLKKLAKKAL-NH2 [P510]
S. aureus (MRSA) MIC (S. aureus (MRSA)): 8 µg/mL
S. epidermidis C621 MIC (S. epidermidis C621): 4 µg/mL
S. pyogenes M76 MIC (S. pyogenes M76): 8 µg/mL
S. pyogenes MIC (S. pyogenes ATCC19615): 8
S. pneumoniae MIC (S. pneumoniae C718): 64 µg/mL
S. pneumoniae MIC (S. pneumoniae C719): 16
P. acne MIC (P. acne ATCC 6919): 2
HC50 at 1 h (in vitro [4]): 10 µg/mL
MIC Cm-comb. (P. aeruginosa H374): 4 µg/mL
MIC Nal-comb. (P. aeruginosa H374): 625 µg/mL
FIC Index (P. aeruginosa H374; [6]): 0.5
FIC Index (P. aeruginosa H374; [7]): 0.375
FIC Index (P. aeruginosa H774): 1.25
MIC Nal-comb. (P. aeruginosa): 624 µg/mL
